The record followed here is publication PMC9856072, “Complexed Crystal Structure of the Dihydroorotase Domain of Human CAD Protein with the Anticancer Drug 5-Fluorouracil” (Biomolecules, 2023).

A word on the Kd: it is the concentration at which binding is half-saturated.

Common to all, as to assay type: binding
The target of assay [1] is T1, dihydroorotase domain of human CAD (huDHOase) (Homo sapiens, UniProt P27708, R1475A).
T1 construct: residues 1456–1846 in human CAD protein, C-terminal His tag
T1 sequence (P27708 1456-1846 R1475A): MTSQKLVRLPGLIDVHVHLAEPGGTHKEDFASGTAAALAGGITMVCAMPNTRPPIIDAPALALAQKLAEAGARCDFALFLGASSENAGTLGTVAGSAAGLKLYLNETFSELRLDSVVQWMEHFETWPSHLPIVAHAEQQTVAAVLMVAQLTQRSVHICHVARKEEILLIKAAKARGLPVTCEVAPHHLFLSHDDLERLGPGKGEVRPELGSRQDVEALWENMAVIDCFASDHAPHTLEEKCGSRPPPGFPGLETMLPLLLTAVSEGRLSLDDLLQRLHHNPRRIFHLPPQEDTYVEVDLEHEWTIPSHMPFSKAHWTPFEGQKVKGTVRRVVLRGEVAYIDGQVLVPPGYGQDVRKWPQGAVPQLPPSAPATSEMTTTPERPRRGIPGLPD
The experiment in a line: intrinsic fluorescence quenching titration.

For assay [2], the target named is T2, dihydroorotase domain of human CAD (huDHOase) (Homo sapiens, UniProt P27708, T1562A).
T2 construct: residues 1456–1846 in human CAD protein, C-terminal His tag
T2 sequence (P27708 1456-1846 T1562A): T1 sequence (P27708 1456-1846 R1475A) with A20R, T107A
The experiment in a line: intrinsic fluorescence quenching titration.

Assay [3] has as its target T3, dihydroorotase domain of human CAD (huDHOase) (Homo sapiens, UniProt P27708).
T3 construct: residues 1456–1846 in human CAD protein, C-terminal His tag
T3 sequence (P27708 1456-1846): T1 sequence (P27708 1456-1846 R1475A) with A20R
Put plainly: co-crystal structure ([…] Å) and intrinsic fluorescence quenching.

Assay [4] concerns the target T3, dihydroorotase domain of human CAD (huDHOase). The experiment in a line: co-crystal structure ([…] Å).

Positions count from the first letter of the chain named.

`O=c1[nH]cc(F)c(=O)[nH]1` [5-FU, 5-fluorouracil]: the figures for the Kd in assay [1], in assay [2] and in assay [3] were 161.5 ± 1.6 µM, 146 ± 2.1 µM and 91.2 ± 1.7 µM, respectively.

As to `O=C(O)CC(O)C(=O)O` (stereo not shown) [malate], in assay [4], the “co-crystal structure (1.64 Å)” value is on record as “This complexed structure revealed that malate is bound at the active site of huDHOase”.
